The numbers were not newly measured in US7943663B2, “Process and an apparatus for producing episesamin-rich compositions” (Suntory Holdings Limited, priority 2005, dated 2011), which cites them from elsewhere.

The structures appear in SMILES notation.

In series [1] the test system is β-oxidation enzymes in the liver. The note with it: rats, separately administered orally; compared with sesamin.
The next series relates to fatty acid synthases. The note with it: rats, separately administered orally; sesamin versus episesamin.
For series [2] the following is noted: rat, po.

For `c1cc2c(cc1[C@H]1OC[C@H]3[C@@H]1CO[C@H]3c1ccc3c(c1)OCO3)OCO2` [Episesamin, episesamin], the “gene expression and enzymatic activity of β-oxidation enzymes in the liver” value in series [1] is given as “markedly increased”. Further, in the series on fatty acid synthases, the “activity for inhibiting fatty acid synthases” value is listed as “no difference”. Besides, in series [2], the “transfer into organs (in vivo distribution)” value is reported as “at least twice as much as that of sesamin”.
On to `c1cc2c(cc1[C@H]1OC[C@H]3[C@@H]1CO[C@@H]3c1ccc3c(c1)OCO3)OCO2` [Sesamin, sesamin], for which, in the series with fatty acid synthases, the “activity for inhibiting fatty acid synthases” value is recorded as “no difference”.
